Source: ChEMBL document CHEMBL1177804, “Synthesis and preliminary evaluation of neuroprotection of celastrol analogues in PC12 cells” (Bioorg Med Chem Lett, 2010)
pEC50, pIC50: −log10 of the molar value. The source made the active and inactive calls. The rule behind the calls is not given here.

Legend:
PC-12 [1] = assay: Cytoprotective activity against t-BPH-induced cell damage in rat PC12 cells assessed as cell viability at 1.6 uM; assay type: functional, cell-based
PC-12 [2] = assay: Cytoprotective activity in rat PC12 cells assessed as protection against t-BHP-induced cell damage at 0.4 uM; assay type: functional
Rattus norvegicus = species: Rattus norvegicus; assay: Cytoprotective activity against H2O2-induced damage in rat RINm cells; assay type: functional, cell-based
PC-12 [3] = assay: Neuroprotective activity in t-BHP-induced damage in rat PC12 cells assessed as induction of Hsp70 expression by Western blotting; assay type: functional, cell-based
PC-12 [4] = assay: Cytoprotective activity against t-BPH-induced cell damage in rat PC12 cells assessed as cell viability at 0.8 uM; assay type: functional, cell-based
LNCaP = assay: Antitumor activity against human LNCAP cells; assay type: functional, cell-based
PC-12 [5] = assay: Cytoprotective activity against t-BPH-induced cell damage in rat PC12 cells assessed as cell viability at 0.1 uM; assay type: functional; settings: read-out: Activity
PC-12 [6] = assay: Cytoprotective activity against t-BPH-induced cell damage in rat PC12 cells assessed as cell viability; assay type: functional, cell-based
[7] = Antitumor activity against mouse SW1 cells; assay type: functional, cell-based

Which Activity (PC-12 [1]) does the source give for `CC1=C(O)/C(=N/O)C=C2C1=CC=C1[C@@]2(C)CC[C@@]2(C)[C@@H]3C[C@](C)(C(=O)O)CC[C@]3(C)CC[C@]12C` here?
The Activity was “Active”.

For `CC1=C(O)C(=O)C=C2C1=CC=C1[C@@]2(C)CC[C@@]2(C)[C@@H]3C[C@](C)(C(=O)N4CCN(C)CC4)CC[C@]3(C)CC[C@]12C`, which Activity (PC-12 [1]) is on record?
Its Activity is “Dose-dependent effect”.

For `CC1=C(OC(=O)CCCCC2CCSS2)C(=O)C=C2C1=CC=C1[C@@]2(C)CC[C@@]2(C)[C@@H]3C[C@](C)(C(=O)O)CC[C@]3(C)CC[C@]12C` (some centres undefined), which Activity (PC-12 [2]) is on record?
Its Activity is “inactive”.

What about the Activity (Rattus norvegicus) of the same molecule?
The Activity was “Active”.

With `CC1=C(OC(=O)c2nc(C)c(C)nc2C)C(=O)C=C2C1=CC=C1[C@@]2(C)CC[C@@]2(C)[C@@H]3C[C@](C)(C(=O)O)CC[C@]3(C)CC[C@]12C` as the molecule, how does the Activity (PC-12 [2]) read?
Its Activity is 76%.

What about the Activity (PC-12 [3]) of the same molecule?
The Activity was “Dose-dependent effect”.

Which results are given for `CC1=C(O)C(=O)C=C2C1=CC=C1[C@@]2(C)CC[C@@]2(C)[C@@H]3C[C@](C)(C(=O)O)CC[C@]3(C)CC[C@]12C` [CELASTROL]?
Activity (PC-12 [4]): inactive; pIC50 (LNCaP): 5.60; viability at 0.1 µM (PC-12 [5]): 65%; Activity (PC-12 [1]): Active; pIC50 (PC-12 [6]): 5.50

With `COC(=O)[C@]1(C)CC[C@]2(C)CC[C@]3(C)C4=CC=C5C(=CC(=O)C(O)=C5C)[C@]4(C)CC[C@@]3(C)[C@@H]2C1` [PRISTIMERIN] as the molecule, how does the pEC50 [7] read?
The pEC50 was over 7.00.

With `CCCOC(=O)[C@]1(C)CC[C@]2(C)CC[C@]3(C)C4=CC=C5C(=CC(=O)C(O)=C5C)[C@]4(C)CC[C@@]3(C)[C@@H]2C1` as the molecule, how does the Activity (PC-12 [1]) read?
The Activity was “Active”.

With `CC1=C(O)C(=O)C=C2C1=CC=C1[C@@]2(C)CC[C@@]2(C)[C@@H]3C[C@](C)(C(=O)OCc4ccccc4)CC[C@]3(C)CC[C@]12C` as the molecule, how does the pEC50 [7] read?
Its pEC50 is 6.52.
